In brackets after ≈: the same amount, converted by molar mass. Values belong to the molecule of their own block, whether it stands above or below them. Activity calls are given as the source filed them. The rule behind the calls is not given here.
Assays:
Staphylococcus aureus [1] = assay: Antibacterial activity against Staphylococcus aureus ATCC 29213 assessed as inhibition of bacterial growth incubated for 18 to 24 hrs by broth microdilution method; type: functional; conditions: time 18-24 hrs
[2] = target: DNA gyrase (Staphylococcus aureus) (UniProt P0A0K8+P20831); assay: Inhibition of Staphylococcus aureus DNA gyrase supercoiling using […] pBR322 DNA as substrate assessed as reduction in supercoiled DNA incubated for 30 mins in presence of ATP by agarose gel electrophoresis; type: protein-complex assay; conditions: dose 0.01-100 µM
[3] = tested on: Staphylococcus epidermidis; assay: Antibacterial activity against methicillin-sensitive Staphylococcus epidermidis (8 strains) assessed as inhibition of bacterial growth incubated for 18 to 24 hrs by broth microdilution method; type: functional; conditions: time 18-24 hrs
Staphylococcus aureus [4] = assay: Bacteriostatic activity against Staphylococcus aureus ATCC 29213 assessed as inhibition of bacterial growth at 1 times of MIC measured after 24 hrs by time-kill assay; type: functional, organism-based
Staphylococcus aureus [5] = assay: Bacteriostatic activity against Staphylococcus aureus ATCC 29213 assessed as inhibition of bacterial growth at 4 times of MIC measured after 24 hrs by time-kill assay; type: functional, organism-based
Staphylococcus aureus [6] = assay: Bactericidal activity against Staphylococcus aureus ATCC 29213 assessed as log reduction in bacterial colony counts at 16 times of MIC measured after 24 hrs by time-kill assay; type: functional
Staphylococcus aureus [7] = assay: Antibacterial activity against methicillin-resistant Staphylococcus aureus (15 strains) assessed as inhibition of bacterial growth incubated for 18 to 24 hrs by broth microdilution method; type: functional; conditions: time 18-24 hrs
[8] = Selectivity index, ratio of CC50 for cytotoxicity against human HepG2 cells to MIC for antibacterial activity against Staphylococcus aureus ATCC 29213; type: toxicity, cell-based; conditions: read-out: Selectivity Index
Staphylococcus aureus [9] = assay: Antibacterial activity against methicillin-resistant Staphylococcus aureus clinical isolate 16-1 infected in kunming mouse model assessed as survival rate at 14 mg/kg, iv pre-infected with bacteria for 10 mins followed by compound administration and measured for 7 days (reference value: 0 %); type: functional; conditions: 168 h, time 7 day
Enterococcus faecalis = assay: Antibacterial activity against Enterococcus faecalis (8 strains) assessed as inhibition of bacterial growth incubated for 18 to 24 hrs by broth microdilution method; type: functional; conditions: time 18-24 hrs
Staphylococcus aureus [10] = assay: Antibacterial activity against methicillin-sensitive Staphylococcus aureus (8 strains) assessed as inhibition of bacterial growth incubated for 18 to 24 hrs by broth microdilution method; type: functional; conditions: time 18-24 hrs
[11] = Cytotoxicity against HUVEC cells assessed as reduction in cell viability incubated for 48 hrs by CCK8 assay; type: toxicity, cell-based; conditions: human
[12] = Metabolic stability in mouse liver microsomes assessed as half-life at 1 uM measured upto 60 mins in presence of NADPH by LC-MS/MS analysis; type: ADME, Microsome
DNA gyrase [13] = target: T1, DNA gyrase (Staphylococcus aureus, UniProt P0A0K8+P20831); assay: Inhibition of Staphylococcus aureus DNA gyrase ATP hydrolysis activity using pBR322 DNA as substrate incubated for 30 mins in presence of ATP by ADP-Glo reagent based assay; type: protein-complex assay
Staphylococcus aureus [14] = assay: Bactericidal activity against Staphylococcus aureus ATCC 29213 at 16 times of MIC measured after 24 hrs by time-kill assay; type: functional, organism-based
Staphylococcus aureus [15] = assay: Bacteriostatic activity against Staphylococcus aureus ATCC 29213 assessed as log reduction in bacterial colony counts at 4 times of MIC measured after 24 hrs by time-kill assay; type: functional
Staphylococcus aureus [16] = assay: Antibacterial activity against methicillin-resistant Staphylococcus aureus clinical isolate 16-1 infected in kunming mouse model assessed as survival rate at 10 mg/kg, iv pre-infected with bacteria for 10 mins followed by compound administration and measured for 7 days (reference value: 0 %); type: functional; conditions: 168 h, time 7 day
Staphylococcus aureus [17] = assay: Antibacterial activity against methicillin-resistant Staphylococcus aureus clinical isolate 16-1 infected in kunming mouse model assessed as survival rate at 20 mg/kg, iv pre-infected with bacteria for 10 mins followed by compound administration and measured for 7 days (reference value: 0 %); type: functional; conditions: 168 h, time 7 day
[18] = Stability in mouse plasma assessed as half-life at 1 uM measured upto 120 mins by LC-MS/MS analysis; type: ADME, cell-free
Staphylococcus aureus [19] = assay: Antibacterial activity against vancomycin intermediate and methicillin-resistant Staphylococcus aureus (2 strains) assessed as inhibition of bacterial growth incubated for 18 to 24 hrs by broth microdilution method; type: functional; conditions: time 18-24 hrs
Enterococcus faecium = assay: Antibacterial activity against Enterococcus faecium (8 strains) assessed as inhibition of bacterial growth incubated for 18 to 24 hrs by broth microdilution method; type: functional; conditions: time 18-24 hrs
[20] = tested on: Staphylococcus epidermidis; assay: Antibacterial activity against methicillin-resistant Staphylococcus epidermidis (11 strains) assessed as inhibition of bacterial growth incubated for 18 to 24 hrs by broth microdilution method; type: functional; conditions: time 18-24 hrs
[21] = Cytotoxicity against human HepG2 cells assessed as reduction in cell viability incubated for 48 hrs by CCK8 assay; type: toxicity, cell-based
Staphylococcus aureus [22] = assay: Antibacterial activity against methicillin-resistant Staphylococcus aureus clinical isolate 16-1 infected in kunming mouse model assessed as survival rate at 7 mg/kg, iv pre-infected with bacteria for 10 mins followed by compound administration and measured for 7 days (reference value: 0 %); type: functional; conditions: 168 h, time 7 day
[23] = Selectivity index, ratio of CC50 for cytotoxicity against HUVEC cells to MIC for antibacterial activity against Staphylococcus aureus ATCC 29213; type: toxicity, cell-based; conditions: human, read-out: Selectivity Index
Staphylococcus aureus [24] = assay: Antibacterial activity against Staphylococcus aureus ATCC 25923 incubated for 24 hrs by CLSI protocol based broth microdilution method; type: functional
Topoisomerase IV = Topoisomerase IV (Staphylococcus aureus, UniProt P0C1S7+P0C1U9); assay: Inhibition of Staphylococcus aureus DNA topoisomerase 4 decatenation activity incubated for 1 hrs by ethidium bromide staining based analysis; type: protein-complex assay
Staphylococcus aureus [25] = assay: Antibacterial activity against methicillin-resistant Staphylococcus aureus incubated for 24 hrs by CLSI protocol based broth microdilution method; type: functional
DNA gyrase [26] = target: T1, DNA gyrase; assay: Inhibition of Staphylococcus aureus DNA gyrase supercoiling using supercoiled pBR322 DNA as substrate incubated for 60 mins by ethidium bromide staining based analysis; type: protein-complex assay
[27] = target: T2, Ribonuclease P protein component (Staphylococcus aureus, UniProt P0A0H5); assay: Inhibition of Staphylococcus aureus RnpA-mediated RNA degradation incubated for 20 mins by fluorescence-based high through-put assay
T2 sequence (P0A0H5 whole entry): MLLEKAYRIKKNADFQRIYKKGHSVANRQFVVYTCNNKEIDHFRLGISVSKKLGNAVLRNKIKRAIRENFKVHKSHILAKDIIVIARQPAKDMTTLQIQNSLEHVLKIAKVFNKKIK

Staphylococcus aureus [28] = assay: Antibacterial activity against methicillin-resistant Staphylococcus aureus incubated for 18 hrs by CLSI protocol based broth microdilution method; type: functional

Compound: CCCCCCOc1ccc(CNNC(=S)NCC)cc1
MIC (Staphylococcus aureus [1]): > 100 µg/mL

Compound: CCCCCOc1ccc(C(=O)NNC(=S)NS(C)(=O)=O)cc1
MIC (Staphylococcus aureus [1]): > 100 µg/mL

Compound: CCCCCOc1ccc(C(=O)NNC(=S)NC(C)=O)cc1
inhibition [2]: Dose-dependent-effect
MIC [3]: 1 µg/mL (≈ 3.09 µM)
Activity (Staphylococcus aureus [4]): Active
Activity (Staphylococcus aureus [5]): Active
log(activity) (Staphylococcus aureus [6]): 6.41
MIC (Staphylococcus aureus [7]): 2 µg/mL (≈ 6.18 µM)
selectivity ratio [8]: 0.98
MIC (Staphylococcus aureus [1]): 2.41 µM
survival at 14 mg/kg (Staphylococcus aureus [9]): 20%
MIC (Enterococcus faecalis): 4 µg/mL (≈ 12.4 µM)
MIC (Staphylococcus aureus [10]): 1 µg/mL (≈ 3.09 µM)
CC50 at 48 h [11]: 6.46 µM
half-life at 1 µM [12]: 28.3 min
IC50 (DNA gyrase [13]): 1.81 µM
Activity (Staphylococcus aureus [14]): Active
log(activity) (Staphylococcus aureus [15]): 2.51
survival at 10 mg/kg (Staphylococcus aureus [16]): 20%
survival at 20 mg/kg (Staphylococcus aureus [17]): 50%
half-life at 1 µM [18]: > 120 min
MIC (Staphylococcus aureus [19]): 2 µg/mL (≈ 6.18 µM)
MIC (Enterococcus faecium): 2 µg/mL (≈ 6.18 µM)
MIC [20]: 0.5 µg/mL (≈ 1.55 µM)
CC50 at 48 h [21]: 2.37 µM
survival at 7 mg/kg (Staphylococcus aureus [22]): 10%
selectivity ratio [23]: 2.68

Compound: CCCCCOc1ccc(C(=O)NNC(=S)NC(=O)Cc2ccccc2)cc1
MIC (Staphylococcus aureus [1]): > 100 µg/mL

Compound: CCCCCCOc1ccc(-c2nnc(NC(C)=O)o2)cc1
MIC (Staphylococcus aureus [1]): > 100 µg/mL

Compound: CCCCCOc1ccc(CCC(=O)NNC(=S)NC(C)=O)cc1
MIC (Staphylococcus aureus [1]): > 100 µg/mL

Compound: CCCCCCOc1ccc(C(=O)NNC(=S)NCC)cc1
MIC (Staphylococcus aureus [1]): > 100 µg/mL

Compound: CC(=O)O[C@H]1C(=O)[C@@]2(C)[C@H]([C@H](OC(=O)c3ccccc3)[C@]3(O)C[C@H](OC(=O)[C@H](O)[C@@H](NC(=O)c4ccccc4)c4ccccc4)C(C)=C1C3(C)C)[C@]1(OC(C)=O)CO[C@@H]1C[C@@H]2O [PACLITAXEL]
CC50 at 48 h [11]: 0.016 µM
CC50 at 48 h [21]: 0.01 µM

Compound: CCCCCCOc1ccc(C(=O)N(C)NC(=S)NC(C)=O)cc1
MIC (Staphylococcus aureus [1]): > 100 µg/mL

Compound: O=C(NC(=S)NNC(=O)c1cccc(Cl)c1Cl)c1ccc([N+](=O)[O-])cc1
MIC (Staphylococcus aureus [24]): 1.95 µg/mL (≈ 4.72 µM)
IC50 (Topoisomerase IV): > 100 µM
MIC (Staphylococcus aureus [25]): > 62.5 µg/mL
IC50 (DNA gyrase [26]): > 100 µM

Compound: Cc1ccc(C(=O)NC(=S)NNC(=O)c2ccc(Cl)cc2)cc1C
IC50 [27]: > 50 µM
MIC (Staphylococcus aureus [28]): 16 µg/mL (≈ 44.2 µM)

Compound: CCCCCCOc1ccc(-c2nnc(NC(C)=O)s2)cc1
MIC (Staphylococcus aureus [1]): > 100 µg/mL

Second part, the molecule after the results:

MIC (Staphylococcus aureus [1]): 1.56 µg/mL
Compound: CC(=O)NC(=S)NNC(=O)c1ccc(OC2CCCCC2)cc1

MIC (Staphylococcus aureus [1]): 3.12 µg/mL
Compound: CCCCCOc1ccc(C(=O)NNC(=S)NC(=O)c2cccs2)cc1

MIC (Staphylococcus aureus [1]): > 100 µg/mL
Compound: CCCCCOc1ccc(C(=O)NNC(=S)NC(C)=O)c(OCCCCC)c1

MIC (Staphylococcus aureus [1]): > 100 µg/mL
Compound: CCCCCOc1cccc(C(=O)NNC(=S)NC(C)=O)c1

MIC (Staphylococcus aureus [1]): 3.12 µg/mL
Compound: CCCCCOc1ccc(C(=O)NC(=S)NNC(C)=O)cc1

MIC (Staphylococcus aureus [1]): 50 µg/mL
Compound: CCCCCOc1ccc(C(=O)NNC(=S)NC(=O)CCC(=O)O)cc1

MIC (Staphylococcus aureus [1]): 3.12 µg/mL
Compound: CC(=O)NC(=S)NNC(=O)c1ccc(C2CC2)cc1

MIC (Staphylococcus aureus [1]): 12.5 µg/mL
Compound: CCCCCOc1ccc(C(=O)NNC(=S)NC(=O)C(C)C)cc1

MIC (Staphylococcus aureus [1]): 100 µg/mL
Compound: CCCCCCCCCCCOc1ccc(C(=O)NNC(=S)NC(C)=O)cc1

MIC (Staphylococcus aureus [1]): 25 µg/mL
Compound: CCCCCOc1ccc(C(=O)NNC(=S)NC(C)=O)cc1O

MIC (Staphylococcus aureus [1]): 3.12 µg/mL
Compound: CC(=O)NC(=S)NNC(=O)c1ccc(OCCCC(C)C)cc1

MIC (Staphylococcus aureus [1]): 6.25 µg/mL
Compound: CCCCCOc1ccc(C(=O)NNC(=S)NC(=O)C2CC2)cc1

MIC (Staphylococcus aureus [1]): 50 µg/mL
Compound: CCC(=O)NC(=S)NNC(=O)c1ccccc1

MIC (Staphylococcus aureus [1]): 6.25 µg/mL
Compound: CC(=O)NC(=S)NNC(=O)c1ccc2ccccc2c1

MIC (Staphylococcus aureus [1]): 3.12 µg/mL
Compound: CC(=O)NC(=S)NNC(=O)c1cccc(-c2ccccc2)c1

MIC (Staphylococcus aureus [1]): 100 µg/mL
Compound: CC(=O)NC(=S)NNC(=O)c1ccc(O)c(O)c1

MIC (Staphylococcus aureus [1]): 6.25 µg/mL
Compound: CCCOc1ccc(C(=O)NNC(=S)NC(C)=O)cc1
